Structures are written as SMILES. Read-outs that look alike come from different tables or passages of the source.

In data set [1] the target is T1, FGFR1 (Homo sapiens, UniProt P11362).
T1 construct: purchased Invitrogen
Description: IC50 Profiling of Kinase Activity Inhibition (Kinase HotSpot assay). It counts as biochemical. To be noted: Table 1.

For data set [2], the target named is T2, FGFR4 (Homo sapiens, UniProt P22455).
T2 construct: purchased Invitrogen
The data set is described as above. Type of data set: biochemical.

In data set [3] the test system is Hep3B cells. It counts as in vivo. Particulars: Hep3B xenograft; for efficacy (tumor volume): FIG. 4.
Data set [4] concerns JHH7. Description: Cellular Viability assay to obtain GI50 (CellTiter-Glo). It counts as cell-based. Particulars: Homo sapiens; JHH7, 72h, FGF19 amplified line. For orientation: Cellular ATP, detected with luciferase, serves as a proxy for viable cell number.
For data set [5], the system named is HEP3B. The data set is described as above. Type of data set: cell-based. To be noted: Homo sapiens, 72h, FGF19 amplified line.
Data set [6] concerns HUH7. Described as above. Type of data set: cell-based. To be noted: Homo sapiens, Huh-7; HUH7, 72h, FGF19 amplified line.
The subject of data set [7] is HEPG2. Described as above. Particulars: Homo sapiens; HEPG2, 72h, FGF19 non-amplified. It counts as cell-based.

T2 sequence (P22455 22-802): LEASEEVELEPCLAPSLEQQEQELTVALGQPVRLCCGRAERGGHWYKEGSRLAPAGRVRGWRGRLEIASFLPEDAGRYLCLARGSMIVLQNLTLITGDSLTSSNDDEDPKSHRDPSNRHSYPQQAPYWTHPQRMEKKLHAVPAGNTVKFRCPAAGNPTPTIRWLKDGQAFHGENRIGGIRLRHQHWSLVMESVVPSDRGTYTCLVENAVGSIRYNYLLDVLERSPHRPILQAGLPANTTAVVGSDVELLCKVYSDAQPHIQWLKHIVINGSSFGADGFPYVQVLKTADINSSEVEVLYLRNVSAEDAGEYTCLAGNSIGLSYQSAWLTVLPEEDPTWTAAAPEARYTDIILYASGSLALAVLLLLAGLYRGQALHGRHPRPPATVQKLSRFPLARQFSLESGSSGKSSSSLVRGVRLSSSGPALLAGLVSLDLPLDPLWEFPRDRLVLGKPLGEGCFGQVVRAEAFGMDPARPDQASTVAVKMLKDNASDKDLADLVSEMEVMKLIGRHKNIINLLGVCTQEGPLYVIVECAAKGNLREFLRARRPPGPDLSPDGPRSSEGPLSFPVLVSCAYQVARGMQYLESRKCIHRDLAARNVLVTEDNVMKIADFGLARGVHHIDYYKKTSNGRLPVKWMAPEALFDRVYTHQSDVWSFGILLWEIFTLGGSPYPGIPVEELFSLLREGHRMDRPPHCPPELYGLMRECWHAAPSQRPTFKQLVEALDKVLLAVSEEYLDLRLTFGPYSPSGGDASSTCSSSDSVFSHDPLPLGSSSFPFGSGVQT
T1 sequence (P11362 22-822): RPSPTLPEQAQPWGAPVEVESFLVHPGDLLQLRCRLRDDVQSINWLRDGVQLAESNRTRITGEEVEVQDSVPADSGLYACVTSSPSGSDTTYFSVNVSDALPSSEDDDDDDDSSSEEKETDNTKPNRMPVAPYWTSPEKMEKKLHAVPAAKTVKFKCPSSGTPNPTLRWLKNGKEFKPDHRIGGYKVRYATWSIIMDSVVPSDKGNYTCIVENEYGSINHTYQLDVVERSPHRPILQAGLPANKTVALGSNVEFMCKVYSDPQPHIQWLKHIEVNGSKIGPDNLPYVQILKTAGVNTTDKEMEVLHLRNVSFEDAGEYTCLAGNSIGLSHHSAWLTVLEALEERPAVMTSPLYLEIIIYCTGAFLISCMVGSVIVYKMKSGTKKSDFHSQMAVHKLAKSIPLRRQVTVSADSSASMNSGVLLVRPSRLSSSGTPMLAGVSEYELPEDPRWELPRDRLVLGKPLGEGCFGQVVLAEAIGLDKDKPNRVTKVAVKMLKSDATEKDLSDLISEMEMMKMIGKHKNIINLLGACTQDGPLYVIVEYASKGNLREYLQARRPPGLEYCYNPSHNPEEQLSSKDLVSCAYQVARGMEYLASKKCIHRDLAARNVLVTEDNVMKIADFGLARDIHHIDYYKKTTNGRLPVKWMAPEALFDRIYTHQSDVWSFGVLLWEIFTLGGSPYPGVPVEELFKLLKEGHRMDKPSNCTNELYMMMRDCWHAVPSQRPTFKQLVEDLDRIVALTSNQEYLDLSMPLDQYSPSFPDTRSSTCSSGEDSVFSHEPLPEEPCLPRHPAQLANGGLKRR

Usually IC50 stands for the point on the concentration scale where inhibition reaches its midpoint. A higher IC50 goes with weaker potency in that assay. For `C=CC(=O)Nc1ccccc1Nc1cc(N(C)C(=O)Nc2cccc(OC)c2Cl)ncn1` [Compound 103], the results for the IC50 in data set [1] and in data set [2] (Table 1) were > 10 µM and 0.673 µM, respectively.

On to `C=CC(=O)Nc1ccccc1Nc1cc(N(C)C(=O)Nc2cc(OC)cc(OC)c2Cl)ncn1` [Compound 105], for which the IC50 was > 10 µM in data set [1] and 0.201 µM in data set [2] (Table 1).

For orientation: GI50 means the concentration at which growth is held to half of that of the control. For the compound `CCN1CCN(c2ccc(Nc3cc(N(C)C(=O)Nc4c(Cl)c(OC)cc(OC)c4Cl)ncn3)cc2)CC1` [BGJ398], the “efficacy (tumor volume)” value in data set [3] (BGJ398 at 60mg/kg) is recorded as “efficacy comparable to compound 108”. The figures for the “toxicity (health of animals)” value in data set [3] (BGJ398 at 60mg/kg) and in data set [3] (dosed orally with BGJ398 at 30mg/kg) were “terminated on Day 11 due to poor health of animals” and “did not exhibit poor health”, respectively. For the same compound, the GI50 in data set [4] is 0.178 ± 0.03 µM; in data set [5], 0.074 ± 0.023 µM; in data set [6], 0.231 ± 0.1 µM; in data set [7], 2.26 ± 1.18 µM.

Take `C=CC(=O)Nc1cc(N2CCN(C(C)=O)CC2)ccc1Nc1cc(N(C)C(=O)Nc2c(Cl)c(OC)cc(OC)c2Cl)ncn1` [Compound 154, N-(5-(4-acetylpiperazin-1-yl)-2-((6-(3-(2,6-dichloro-3,5-dimethoxyphenyl)-1-methylureido)pyrimidin-4-yl)amino)phenyl)acrylamide]: the IC50 in data set [2] was < 0.001 µM.

In data set [2] (Table 1), `C=CC(=O)Nc1ccccc1Nc1cc(N(CCNC(C)C)C(=O)Nc2c(Cl)c(OC)cc(OC)c2Cl)ncn1` [Compound 183] gave an IC50 of 0.18 µM.

With `C=CC(=O)Nc1cc(N2CCN(CC)CC2)ccc1Nc1cc(N(C)C(=O)Nc2c(Cl)c(OC)cc(OC)c2Cl)ncn1` [Compound 108, N-(2-(6-(3-(2,6-Dichloro-3,5-dimethoxyphenyl)-1-methylureido)pyrimidin-4-ylamino)-5-(4-ethylpiperazin-1-yl)phenyl)acrylamide], in data set [3] (dosed for 18 days, Compound 108 versus BGJ398), the “efficacy (tumor volume)” value was “more efficacious than BGJ398 at tolerable dosage levels”.

The record behind these values is EP3421457B1, “PYRIMIDINE FGFR4 INHIBITORS” (priority 2013, dated 2015).
